According to patent US20160281050A1, “METHODS FOR TREATING A CULTURE OF HAEMATOCOCCUS PLUVIALIS FOR CONTAMINATION USING SALT AND HYDROGEN PEROXIDE” (HELIAE DEVELOPMENT LLC, priority 2015, published 2016):
Read-outs that look alike come from different tables or passages of the source.

Columns and labels:
[1] = system: Haematococcus pluvialis (Strain 2); assay: % cell lysis and culture dry weight in flasks, salt treatment (Example 12); type: cell-based
Method: This test was done side by side in flasks (0.1 L) and in reactors located in a greenhouse operating in conditions: reactor volume of 230 L; Daily PAR of 20 mol m^−2 d^−1; pH (not measured); and paddlewheel speed of 21 RPM. […] The flask cultures were mixed by shaking at 140 rpm and received 300-400 μmol/m^2 s of photosynthetically active radiation (PAR) in 12 hour light cycles and constant supply of 2.5% CO2. The motility of the culture was monitored by visual observation under a microscope. […] Nine 230 L reactors were also seeded with culture from bioreactor #2410 on the same day as the flasks and brought to 2 ppt concentration of salt. Once motility of the cells was reduced to <10% (day 3 of culture for flasks and day 2 for 230 L reactors) the level of salt was elevated to a point between 4-18 ppt and compared to the culture in two reactors remaining at 2 ppt salt. Flasks and 230 L reactors were monitored for percentage of cell lysis via visual observation under a microscope, culture dry weight (biomass accumulation in g/L), and percentage of chytrid infection via visual observation under a microscope. Carotenoid production, a proxy for determining astaxanthin, was quantified every other day of culture in the 230 L reactors using the UV method.

[2] = system: Haematococcus pluvialis (Strain 1) green swimmer cells
Method: (§1) An experiment was conducted to determine if treating a culture of Haematococcus pluvialis with hydrogen peroxide affects the live bacteria count. […] The culture in bioreactor #2210 was treated with 0.33 mL/L hydrogen peroxide 3% stock concentration (calculated concentration of 0.0099 mL/L) every 6 hours for the duration of the culture's green swimmer stage (90 hours). The culture in bioreactor #2230 was not treated to serve as a control for comparison. Samples were taken to assess motility, lysis, and the live bacteria count in the cultures at 11, 34, 52, and 66 hours.

live bacteria = conditions: 0.0099 mL/L every 6 hours
Method: as §1

chytrids = assay: % chytrid infection in flask cultures (Example 6); type: cell-based
Method: A series of experiments were conducted to evaluate the effectiveness of hydrogen peroxide alone and in combination with concentrations of salt as a treatment for controlling chytrid infections in Haematococcus pluvialis cultures. […] Bioreactor #2420 had just been inoculated with cells in the green swimmer stage into reddening conditions that comprised of culture medium comprising a 1 ppt concentration of sodium chloride (NaCl). The flask experiment consisted of duplicate untreated controls and duplicate treatments.
The flask cultures contained Haematococcus pluvialis (Strain 1) cells in both the green swimmer stage and early red cyst stage.
The collected samples were inoculated in the green swimmer stage in growth conditions [i.e., in the absence of sodium chloride (NaCl)].
The culture samples were inoculated in the green swimmer stage in growth conditions [i.e., in less than 1 ppt of sodium chloride (NaCl)].
The flask cultures were then diluted 1:3 into reddening media comprising 1 ppt NaCl or 2 ppt NaCl (33.3 mL and 66.6 mL culture media).

[3] = system: Haematococcus pluvialis (Strain 1) green swimmer cells; remark: listed apart in the source
Description: Haematococcus pluvialis cultures containing green swimmer cells in open raceway pond bioreactors [identification numbers (#) 2210 and 2220] disposed in a greenhouse, using paddlewheel mixing, and operating in conditions: reactor volume of 16,000 L; Daily photosynthetically active radiation (PAR) of 57 mol m^−2 d^−1; pH of 7.5; and paddlewheel speed of 40%; were inoculated on the same day and cultured in growth conditions.
The culture of bioreactor #2330 was transferred to open raceway pond bioreactor #2420 disposed in a greenhouse, using paddlewheel mixing, and operating in conditions: reactor volume of 140,000 L; Daily PAR of 58 mol m^−2 d^−1; pH of 7.3; and paddlewheel speed of 70%); but the culture was not treated after the transfer. […] Bacteria including Pseudomonas, Flectobacillus, and Cytophaga were present in the bacterial community in both the bioreactors #2330 and #2420.

[4] = bioreactor #2220, 0.0075 mL/L every 24 hours

## [Cl-].[Na+] [NaCl, sodium chloride]
[1]; 2 ppt, 9 d
  % Cell Lysis in Flasks: 0 ± 0%
[1]; 2 ppt, 11 d
  % Cell Lysis in Flasks: 0 ± 0%
[1]; 4 ppt, 9 d
  % Cell Lysis in Flasks: 0 ± 0%
[1]; 4 ppt, 11 d
  % Cell Lysis in Flasks: 0 ± 0%
[1]; 5 ppt, 9 d
  % Cell Lysis in Flasks: 0 ± 0%
[1]; 5 ppt, 11 d
  % Cell Lysis in Flasks: 1 ± 1%
[1]; 6 ppt, 9 d
  % Cell Lysis in Flasks: 4 ± 3%
[1]; 6 ppt, 11 d
  % Cell Lysis in Flasks: 5 ± 4%
[1]; 7 ppt, 9 d
  % Cell Lysis in Flasks: 0 ± 0%
[1]; 7 ppt, 11 d
  % Cell Lysis in Flasks: 7 ± 3%
[1]; 8 ppt, 9 d
  % Cell Lysis in Flasks: 3 ± 2%
[1]; 8 ppt, 11 d
  % Cell Lysis in Flasks: 2 ± 0%
[1]; 9 ppt, 9 d
  % Cell Lysis in Flasks: 0 ± 0%
[1]; 9 ppt, 11 d
  % Cell Lysis in Flasks: 2 ± 0%
[1]; 10 ppt, 9 d
  % Cell Lysis in Flasks: 1 ± 1%
[1]; 10 ppt, 11 d
  % Cell Lysis in Flasks: 3 ± 1%
[1]; 11 ppt, 9 d
  % Cell Lysis in Flasks: 0 ± 0%
[1]; 11 ppt, 11 d
  % Cell Lysis in Flasks: 1 ± 1%
[1]; flasks, all treatments
  cell lysis: below 10%

## hydrogen peroxide [H2O2]
[2]
  Motility: above 60%
  lysis: ≤ 15%
Live bacteria; vs untreated control
  reduction in the bacteria count: approximately 1 log
Live bacteria; 11 h
  Live Bacteria Count: 4.8 × 10^5 CFU/mL
Live bacteria; 34 h
  Live Bacteria Count: 5.5 × 10^6 CFU/mL
Live bacteria; 52 h
  Live Bacteria Count: 1.8 × 10^5 CFU/mL
Live bacteria; 66 h
  Live Bacteria Count: 4.5 × 10^5 CFU/mL
chytrids; 4th experiment, starting 5 days after inoculation (144 h)
  reduction in % chytrid infection compared to the control: 50-90%
chytrids; #2210 samples, absence of NaCl, 0.0075 mL/L two times per day, 0 h
  Average Chytrid Infection: 0.0 ± 0.0%
chytrids; #2210 samples, absence of NaCl, 0.0075 mL/L two times per day, 24 h
  Average Chytrid Infection: 0.0 ± 0.0%
chytrids; #2210 samples, absence of NaCl, 0.0075 mL/L two times per day, 48 h
  Average Chytrid Infection: 0.0 ± 0.0%
chytrids; #2210 samples, absence of NaCl, 0.0075 mL/L two times per day, 96 h
  Average Chytrid Infection: 0.0 ± 0.0%
chytrids; #2210 samples, absence of NaCl, 0.0075 mL/L two times per day, 120 h
  Average Chytrid Infection: 0.0 ± 0.0%
chytrids; #2210 samples, absence of NaCl, 0.0075 mL/L two times per day, 144 h
  Average Chytrid Infection: 4.2 ± 5.9%
chytrids; #2210 samples, absence of NaCl, 0.0075 mL/L two times per day, 168 h
  Average Chytrid Infection: 18.3 ± 25.9%
chytrids; #2210 samples, absence of NaCl, 0.0075 mL/L two times per day, 192 h
  Average Chytrid Infection: 26.6 ± 37.1%
chytrids; #2210 samples, absence of NaCl, 0.0075 mL/L two times per day, 264 h
  Average Chytrid Infection: 51.7 ± 7.1%
chytrids; #2310 samples (4th experiment), 1 ppt NaCl, 0.0075 mL/L 3 times per day, 0 h
  Average Chytrid Infection: 0.0 ± 0.0%
chytrids; #2310 samples (4th experiment), 1 ppt NaCl, 0.0075 mL/L 3 times per day, 24 h
  Average Chytrid Infection: 0.0 ± 0.0%
chytrids; #2310 samples (4th experiment), 1 ppt NaCl, 0.0075 mL/L 3 times per day, 48 h
  Average Chytrid Infection: 0.0 ± 0.0%
chytrids; #2310 samples (4th experiment), 1 ppt NaCl, 0.0075 mL/L 3 times per day, 120 h
  Average Chytrid Infection: 1.7 ± 1.7%
chytrids; #2310 samples (4th experiment), 1 ppt NaCl, 0.0075 mL/L 3 times per day, 144 h
  Average Chytrid Infection: 18.3 ± 18.5%
chytrids; #2310 samples (4th experiment), 1 ppt NaCl, 0.0075 mL/L 3 times per day, 168 h
  Average Chytrid Infection: 17.2 ± 14.4%
chytrids; #2310 samples (4th experiment), 1 ppt NaCl, 0.0075 mL/L 3 times per day, 192 h
  Average Chytrid Infection: 32.2 ± 28.1%
chytrids; #2310 samples (4th experiment), 1 ppt NaCl, 0.0075 mL/L 3 times per day, 216 h
  Average Chytrid Infection: 44.4 ± 46.8%
chytrids; #2420 samples, 1 ppt NaCl, 0.0075 mL/L 2-3 times per day, 0 h
  Average Chytrid Infection: 0.0 ± 0.0%
chytrids; #2420 samples, 1 ppt NaCl, 0.0075 mL/L 2-3 times per day, 24 h
  Average Chytrid Infection: 0.0 ± 0.0%
chytrids; #2420 samples, 1 ppt NaCl, 0.0075 mL/L 2-3 times per day, 48 h
  Average Chytrid Infection: 0.0 ± 0.0%
chytrids; #2420 samples, 1 ppt NaCl, 0.0075 mL/L 2-3 times per day, 72 h
  Average Chytrid Infection: 0.0 ± 0.0%
chytrids; #2420 samples, 1 ppt NaCl, 0.0075 mL/L 2-3 times per day, 144 h
  Average Chytrid Infection: 0.0 ± 0.0%
chytrids; #2420 samples, 1 ppt NaCl, 0.0075 mL/L 2-3 times per day, 168 h
  Average Chytrid Infection: 0.0 ± 0.0%
chytrids; #2420 samples, 1 ppt NaCl, 0.0075 mL/L 2-3 times per day, 197 h
  Average Chytrid Infection: 0.0 ± 0.0%
chytrids; #2420 samples, 1 ppt NaCl, 0.0075 mL/L 2-3 times per day, 217 h
  Average Chytrid Infection: 0.0 ± 0.0%
chytrids; #2440 samples, 1 ppt salt, 0.0075 mL/L 2-3 times per day, 0 h
  Average Chytrid Infection: 0.0 ± 0.0%
chytrids; #2440 samples, 1 ppt salt, 0.0075 mL/L 2-3 times per day, 24 h
  Average Chytrid Infection: 1.7 ± 2.9%
chytrids; #2440 samples, 1 ppt salt, 0.0075 mL/L 2-3 times per day, 96 h
  Average Chytrid Infection: 25.0 ± 2.9%
chytrids; #2440 samples, 1 ppt salt, 0.0075 mL/L 2-3 times per day, 120 h
  Average Chytrid Infection: 51.7 ± 5.0%
chytrids; #2440 samples, 1 ppt salt, 0.0075 mL/L 2-3 times per day, 144 h
  Average Chytrid Infection: 43.9 ± 4.2%
[3]; [4]
  duration of high motility compared with untreated culture #2210: one day longer
  motility retained: 95%
[3]; bioreactor #2320, 0.0075 mL/L every 24 hours
  time of chytrid detection compared with untreated culture #2310: three days later
[3]; bioreactor #2320, treated culture
  onset of high amounts of cell lysis: not until five days after the treatment ended
[3]; bioreactor #2330, 0.0075 mL/L, after the first treatment
  decrease of motility: about 30%
[3]; bioreactor #2330, 0.0075 mL/L, after the second treatment
  lysis: 60%
[3]; bioreactors #2330/#2420, end of the culture period
  Chytrid sporangia present, time after hydrogen peroxide treatment ended: 7 days
[3]; bioreactors #2330/#2430, 0.0075 mL/L once before and twice after transfer
  Chytrid sporangia in the culture: not detected
[3]; bioreactors #2330/#2430, treatment began after lysis had occurred
  time high amounts of cell lysis remained high: 4 days
